Data taken from US20070078161A1, “Crystalline forms of (+)- and (-) erythro-mefloquine hydrochloride” (priority 2003, published 2007).

Key:
[1] = solubility behaviour in ethanol/water mixtures; format: physicochemical
From the text: This effect may be used to initiate precipitation and crystallisation by the addition of water to a solution of (+)- or (−)-mefloquine hydrochloride and also to apply seeding techniques using seeds with a desired morphology such as crystalline form A in cubic or cube-like form. However, other non-solvents may be used to initiate precipitation from solution in a solvent such as hydrocarbons (hexane, heptane, cyclohexane and methylcyclohexane) or ethers (t-butyl methyl ether).

[2] = grinding of form A sample, X-ray powder diffraction; format: physicochemical; conditions: slightly ground to particle size approximately 1 to 10 μm
Experimental: This sample was slightly ground to reduce the particle size to approximately 1 to 10 μm and to avoid this textural effect. The strongest peak intensities are thus reduced and a few of the small peaks disappear.
Powder X-ray Diffraction (PXRD): PXRD is performed on a Philips 1710 powder X-ray diffractometer using CuKα radiation. D-spacings are calculated from the 2θ values using the wavelength of 1.54060 Å. Generally, 2θ values are within an error of ±0.1-0.2°. The experimental error on the d-spacing values is therefore dependent on the peak location.

[3] = suspensions of mixtures of forms A, B and C, 2° C. to 75° C.

Cl.OC(c1cc(C(F)(F)F)nc2c(C(F)(F)F)cccc12)C1CCCCN1 (stereo not drawn) [(+)- or (−)-mefloquine hydrochloride]
solubility on addition of certain amounts of water to pure ethanol ([1]; lower water amounts): increased | solubility relative to pure ethanol ([1]; water content of above 50% (v/v)): lower than in pure ethanol

Cl.OC(c1cc(C(F)(F)F)nc2c(C(F)(F)F)cccc12)C1CCCCN1 (stereo not shown) [form A]
crystal form after grinding [2]: still present after grinding

Cl.OC(c1cc(C(F)(F)F)nc2c(C(F)(F)F)cccc12)C1CCCCN1 (stereo not shown) [form B]
relative stability of crystalline forms [3]: metastable
